Laboratory results as given in PMC11212260, “Next-generation neuropeptide Y receptor small-molecule agonists inhibit mosquito-biting behavior” (Parasites & Vectors, 2024).
Where “and” joins values, the source holds several entries; their conditions need not be identical. Equal entries are not always repeated. Where two headings read alike, the source gives them in different places.

Experiments:
[1] = biological target: Ae. aegypti NPYLR7 (Aedes aegypti, UniProt U5N1H5); assay: In vitro calcium (GCaMP6s) FLIPR assay in HEK293T cells transfected with NPYLR7; assay type: cell-based; settings: for activation at 100 µM: single replicate of the dose-response curve
Ae. aegypti NPYLR7, sequence (U5N1H5 entry or part of it): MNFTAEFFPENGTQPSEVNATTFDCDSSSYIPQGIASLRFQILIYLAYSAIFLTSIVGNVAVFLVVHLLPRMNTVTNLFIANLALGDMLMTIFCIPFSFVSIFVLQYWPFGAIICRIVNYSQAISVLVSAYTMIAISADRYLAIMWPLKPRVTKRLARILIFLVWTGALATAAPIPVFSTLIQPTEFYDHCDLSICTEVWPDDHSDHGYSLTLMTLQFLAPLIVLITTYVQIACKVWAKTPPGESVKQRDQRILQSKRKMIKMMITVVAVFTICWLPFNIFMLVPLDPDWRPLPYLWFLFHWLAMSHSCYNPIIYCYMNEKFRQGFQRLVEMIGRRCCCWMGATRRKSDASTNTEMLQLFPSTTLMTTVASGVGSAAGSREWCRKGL
Description: The in vitro screening assay was adapted from, and carried out at HD Biosciences (HDB, Shanghai) as follows: HEK293T (Thermo Fisher Scientific) cells were grown in Dulbecco’s modified Eagle medium (DMEM) (high glucose, with glutamine), 10% fetal bovine serum, 1% penicillin–streptomycin (Pen/Strep), seeded in a 75 cm^2 flask, and incubated at 37 °C and 5% CO2. Cells were transiently transfected with 1 μg of each plasmid expressing GCaMP6s (Addgene […]) (Chen et al., 2013), mouse Gqα15 (Addgene #40753) (Offermanns and Simon, 1995) and Ae. aegypti NPYLR7 (Addgene #52392) (Duvall et al. 2019) using Lipofectamine 2000 (Invitrogen) in 4 ml of Opti-MEM (Invitrogen). This mixture was added to a plate after 20 min and incubated for 6–8 h. Cells were then trypsinized, resuspended in phenol-free media, and plated in a 384-well plate (Greiner Bio-One) at a density of 20,000 cells per 40 μl, and incubated overnight (37 °C, 5% CO2). Cells were imaged directly in phenol-free media. Plates were loaded into a Molecular Devices fluorescence imaging plate reader (FLIPR) with an excitation wavelength of 470–495 nm and an emitted wavelength of 515–575 nm. Plates were imaged every second for 5 min. After 30 s of baseline fluorescence recording, 10 μl of the test compound in reading buffer [Hank’s Balanced Salt Solution (Gibco) + 20 mM HEPES (Sigma-Aldrich)] was added. Concentrations tested ranged from 0 to 100 μM. Data were collected in raw fluorescence units (RFU).
Each test plate included replicates of 10 μM FMRFa3 (H‐Ala‐Gly‐Gln‐Gly‐Phe‐Met‐Arg‐Phe‐NH2), an Ae. aegypti neuropeptide agonist of NPYLR7 used to calculate the hundred percent effect (HPE). The zero percent effect (ZPE) control was calculated as a response to buffer alone. The Z′ factor was calculated for each plate by Z^′=1-3σHPE+3σZPE/|μHPE-μZPE| . Plates with Z′ < 0.5 were excluded from analysis. Raw fluorescence units (RFU) were converted to percent effect relative to the average of the ZPE and HPE. Percent effect = (sample luminescence − average ZPE)/(average HPE − average ZPE)×100. […] Each replicate was plotted as percent effect versus log[concentration], and replicates with maximal responses between 20 and 250% were used for EC50 calculations. Relative EC50 was calculated using an [Agonist] versus response–variable slope four-parameter model where Y=Bottom+(X^Hillslope)∗(Top-Bottom)/(X^HillSlope+EC50^HillSlope) . For compounds with multiple replicates, the relative EC50 of each replicate was averaged.

[2] = tested on: Aedes aegypti (Orlando strain) females; assay: Host-seeking screening assay (miniport olfactometer); assay type: in vivo; settings: fed 1 μM in saline, tested 48 h post-meal; for Host-seeking relative to saline (test compound % host-seeking/average matched saline % host-seeking): individual replicates; for Attraction (relative to saline): per-compound value of Fig. 3C
Description: Groups of 60–150 females were placed in bucket cages with a diameter of 21.6 cm and height of 16.5 cm (VWR) and fasted with access to water for 24 h prior to feeding. Meals were delivered to females via Glytube membrane feeders as described previously. Meals consisted of 1.5 ml sheep blood (HemoStat Laboratories), saline (400 mM NaHCO3 + dih2O), or saline and test compound. Lyophilized compounds were stored at room temperature until use. High-concentration stocks (30 mM in 100% dimethyl sulfoxide [DMSO]) (Sigma-Aldrich) were stored at −20 °C and diluted in saline immediately prior to feeding. Once prepared, meals and glycerol heating elements were warmed in a 42 °C water bath for 15 min to provide warmth to attract mosquitos to feed. ATP (1 mM final concentration) and test compounds (1 μM final concentration) were added prior to placing the meal on top of the mesh on the cage containing female mosquitos. Females were allowed 15–20 min to feed to repletion. Abdominal engorgement was scored by eye and confirmed by weighing females to ensure full feeding (Data S1). […] Females were returned to their original cage with a diH2O wick for 48 h prior to behavioral testing. The lethality of each compound was measured by counting the number of dead females in each cage 24 h post-meal.
Miniport olfactometers were fabricated in-house as described previously. Information regarding design, construction, and use can be found at https://github.com/VosshallLab/Miniport-Construction. Miniport canisters consisted of a 6″ × 3″ × 3″ acrylic tube with a mesh screen to allow for air flow. Groups of 10–20 females were loaded into canisters 24 h post-meal. Females were left in canisters overnight to acclimate with two cotton balls soaked in diH20 to prevent desiccation. Behavior trials began 48 h post-meal. Canisters were randomly assigned to attraction traps 1–4 and given 5 min to acclimate. The stimulus end of the trap was connected to a flowmeter that supplied 5% CO2 at a rate of 30 ml/min. Thirty seconds of CO2 flow was supplied to activate females prior to opening the sliding door. Once opened, the sliding door gave females access to the attraction trap baited with a human-scented nylon stocking previously worn by the same experimenter for 8–10 h to collect body odor and stored in a plastic bag at −20 °C until use. After 5 min, the sliding door was closed and attraction was scored as mosquitoes in the attraction trap/total number of mosquitoes. For each experiment data were normalized to the matched average saline attraction from the same experiment (% attracted/average saline attraction). Any dead mosquitoes were excluded from the analysis. Non-fed females and blood-fed females served as environmental control groups while the saline-fed females served as the vehicle control each day. If non-fed or saline-fed females were less than 50% attracted or if blood-fed females were more than 20% attracted behavioral trials were halted and all data from that experimental day were discarded.

[3] = EC50 of the individual assay date/plate (assay date), read-out: EC50
[4] = Figure 1E Summary, second list (n = 48), read-out: Reported Metric (Summary list)
[5] = HEK-293T, single replicate, normalised response
[6] = relative EC50, percent effect relative to 10 μM FMRFa3, read-out: EC50
[7] = sheet Figure 3C, unit inferred, read-out: EC50
[8] = summary EC50 per compound (mean over assay dates), the unit is taken from the neighbouring EC50 (uM) column, read-out: Reported Metric
[9] = Figure 1E Summary, third list (n = 39), read-out: Reported Metric (Summary list)

Row | SMILES | EC50 [1, 3] [µM] | EC50 [1, 4] [µM] | activation at 33.3333 µM [1, 5] [%] | activation at 100 µM ([1]; HEK-293T, normalised response) [%] | EC50 [1, 6] [µM] | EC50 [1, 7] [µM] | EC50 [1, 8] [µM] | Attraction (relative to saline) [2] | activation at 3.7037 µM [1, 5] [%] | activation at 11.1111 µM [1, 5] [%] | EC50 [1, 9] [µM] | other results
1 | Cc1nc(NC(=N)N)nc2cc(OCC(F)(F)F)ccc12 [TDI-014168] | 4.26 | 4.26 | 80.4 | 74.2 | 4.26 | 4.26 | 4.26 | 1.03 |  |  |  | Host-seeking relative to saline (test compound % host-seeking/average matched saline % host-seeking) ([2]; listed as TDI-04168): 1.07
2 | Cc1nc(NC(=N)N)nc2cc(OCC3CCCCC3)ccc12 [TDI-014169] | 4.43 | 4.43 | 94.5 | 113 | 4.44 | 4.43 | 4.43 | 1.025 | 42.2 | 78.4 |  | 
3 | Cc1nc(NC(=N)N)nc2cc(OCC3CC3)ccc12 [TDI-014171] | 0.912 |  |  | 66.3 | 0.912 | 0.912 | 0.912 | 0.79 | 50.2 | 63.8 | 0.912 | activation at 1.2346 µM [1, 5]: 32.9%
4 | Cc1nc(NC(=N)N)nc2cc(OCc3ccc(OC(F)(F)F)cc3)ccc12 [TDI-014172] | 19.7 | 19.7 | 89.6 |  | 19.7 | 19.7 | 19.7 | 0.975 |  | 57 |  | Host-seeking relative to saline (test compound % host-seeking/average matched saline % host-seeking) ([2]; listed as TDI-04172): 1 and 1.1
5 | COc1ccc(COc2ccc3c(C)nc(NC(=N)N)nc3c2)cn1 [TDI-014173] | 1.32 |  | 101 |  | 1.32 | 1.32 | 1.32 | 0.88 | 83.8 | 74.1 | 1.32 | activation at 0.4115 µM [1, 5]: 47.7%; activation at 1.2346 µM [1, 5]: 53.6%
6 | Cc1nc(NC(=N)N)nc2cc(OCC3CCOC3)ccc12 (stereo not shown) [TDI-014174] | 5.31 | 5.31 | 92.2 | 102 | 5.31 | 5.31 | 5.31 | 1 | 42 |  |  | Host-seeking relative to saline (test compound % host-seeking/average matched saline % host-seeking) ([2]; listed as TDI-04174): 1.41
7 | COc1ccc(OCc2ccc3c(C)nc(NC(=N)N)nc3c2)cc1 [TDI-014175] | 0.547 |  |  | 117 | 0.548 | 0.547 | 0.547 | 0.905 | 89.7 | 98.4 | 0.547 | activation at 0.4115 µM [1, 5]: 35.1%; activation at 1.2346 µM [1, 5]: 65.9%
8 | CCOc1ccc2c(C)nc(NC(=N)N)nc2c1 [TDI-014177] | 5.6 | 5.6 |  | 49.6 | 5.6 | 5.6 | 5.6 | 0.94 |  |  |  | Host-seeking relative to saline (test compound % host-seeking/average matched saline % host-seeking) ([2]; listed as TDI-04177): 1.17 and 0.9
9 | Cc1nc(NC(=N)N)nc2cc(OCc3cccnn3)ccc12 [TDI-014179] | 39.3 | 39.3 | 23.1 |  | 39.3 | 39.3 | 39.3 | 0.865 |  |  |  | 
10 | COc1ccc(COc2ccc3c(C)nc(NC(=N)N)nc3c2)cc1OC [TDI-014180] | 0.00192 |  | 81.8 | 63.8 | 0.00192 | 0.00192 | 0.00192 | 0.93 | 96.7 | 74 | 0.00192 | activation at 0.0152 µM ([1]; HEK-293T, 0.0152 uM, single replicate, normalised response): 42.4%; activation at 0.0457 µM [1, 5]: 59.4%; activation at 0.1372 µM [1, 5]: 67.9%; activation at 0.4115 µM [1, 5]: 85.1%; Host-seeking relative to saline (test compound % host-seeking/average matched saline % host-seeking) ([2]; listed as TDI-04180): 0.93
11 | Cc1nc(NC(=N)N)nc2cc(OCc3cnccn3)ccc12 [TDI-014181] | 6.21 | 6.21 |  |  | 6.21 | 6.21 | 6.21 | 0.975 |  |  |  | 
12 | Cc1nc(NC(=N)N)nc2cc(OCc3ccc(S(C)(=O)=O)cc3)ccc12 [TDI-014182] | 0.222 |  | 80.3 |  | 0.222 | 0.222 | 0.222 | 0.9 | 77.6 | 90.2 | 0.222 | activation at 0.4115 µM [1, 5]: 32%; activation at 1.2346 µM [1, 5]: 62.2%
13 | Cc1nc(NC(=N)N)nc2cc(OC3CCCc4ccccc43)ccc12 (stereo not shown) [TDI-014183] | 13.7 | 13.7 |  |  | 13.7 | 13.7 | 13.7 | 0.88 |  |  |  | Host-seeking relative to saline (test compound % host-seeking/average matched saline % host-seeking) ([2]; listed as TDI-04183): 0.97
14 | CNc1nc(NC(=N)N)nc2cc(OCc3ccc(OC)cc3)c(OC)cc12 [TDI-014185] | 0.0175 |  |  |  | 0.0175 | 0.0175 | 0.0175 | 0.79 |  | 79.9 | 0.0175 | activation at 0.0457 µM [1, 5]: 70.6%; activation at 0.1372 µM [1, 5]: 69.2%
